Data from publication PMC6930223 (Scientific Reports, 2019).

Molecular target: hERG1a/1b current (Homo sapiens, UniProt Q12809)
Experimental: All working solutions were sterile-filtered, stored at −20 °C and thawed to room temperature before use.
Prior to electrophysiology study, the HEK293-hERG1a/1b cells were first grown in complete medium without selection antibiotics for 6 days. Approximately 5.0 × 10^5 cells were then plated onto an uncoated 96-mm cell culture dish for a maximum of 3 days. […] The cell suspension was then transferred into a 15-ml polypropylene tube and centrifuged at 100 × g for 3 min. Subsequently, the cell pellet was resuspended in extracellular solution to obtain a final density of 2 × 10^6–3 × 10^6 cells/ml and incubated on ice for 20 min to allow cell recovery. The electrophysiology studies were performed using NPC®-1 chips (Nanion Technologies, Germany) and Port-a-Patch system (Nanion Technologies, Germany) following manufacturer’s instructions, within the next 2 h. For characterization and determination of the hERG1a/1b current inhibition, a series of voltage protocols were applied as published previously.
The hERG1a/1b current was recorded in cells achieving whole-cell configuration. Briefly, a single cell was first held at −80 mV, the theoretical cardiac resting membrane potential, on the aperture of the NPC-1 chip (Nanion Technologies, Germany). To characterize the I-V relationship, the cell was depolarized to test potentials ranging from −60 mV to +50 mV for 4 s in […], followed by a 5-s step to −50 mV before returning to −80mV.
To determine the pharmacological effects of the HEK293-hERG1a/1b cells, the cells were perfused with test compound solutions using an external perfusion system. […] The mean of six successive Itail was recorded for each test concentration. Four independent experiments were conducted to derive the dose-response curve.

`CNCCC(Oc1ccc(C(F)(F)F)cc1)c1ccccc1` (stereo not shown) [fluoxetine, reference compound] was tested, and the “Hill coefficient (h)” value was 1.19.
